Patent US9708336B2, “Metallo-beta-lactamase inhibitors” (priority 2014, dated 2017)
pIC50: −log10 of the molar value. Read-outs that look alike come from different tables or passages of the source.

Experiments:
IMP-1 = IMP-1 (Serratia marcescens, UniProt P52699); assay: biochemical; assay type: biochemical; details: read-out: IMP-1 IC50
Procedure: Enzyme Activity: Determination of IC50
The Class B enzyme activities were measured in the presence of the test inhibitor in a fluorescence assay against a commercially available substrate consisting of a cephalosporin core linking 7-hydroxycoumarin to fluorescein (CCF2-FA). The enzyme (NDM-1, IMP-1 or VIM-1) and the substrate were diluted in 100 mM KH2PO4 buffer (pH 7) containing 0.005% Tween-20 and 10 μM ZnSO4. […] The test inhibitor was dissolved in dimethylsulfoxide and diluted 1:50 in the assay, resulting in a final concentration range of 20 uM to 0.00063 uM. In a 384-well microplate, the test inhibitor was incubated with the metallo-β-lactamase enzyme and the substrate for 2 hours at 25° C. Fluorescence at 460 nm following excitation at 405 nm was measured. The IC50 value was determined from semi-logarithmic plots of enzyme inhibition versus inhibitor concentration, with a curve generated using a 4-parameter fit.

[1] = tested on: Escherichia coli expressing NDM-1 (CLB30016); assay: Antibiotic potentiation activity: synergistic concentration (MITC95) with imipenem, OD600 growth; assay type: cell-based
Outline: (§1)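 Clinical MBL-producing strains (E. coli NDM-1, S. marcescens IMP-1, K. pneumoniae VIM-1) from overnight plates were diluted 1:100 into 1.1×CAMHB. Compound was tested with imipenem at 4 μg/ml (optionally 1 μg/ml) or without it. After 22–24 h at 35 °C, growth was read as OD600.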

[2] = tested on: Klebsiella pneumoniae expressing VIM-1 (IHMA599644); assay: as above; assay type: cell-based
Outline: as §1

[3] = tested on: Serratia marcescens expressing IMP-1 (CL5741); assay: as above; assay type: cell-based
Outline: as §1

NDM-1 = NDM-1 (Klebsiella pneumoniae, UniProt C7C422); assay: biochemical; assay type: biochemical; details: read-out: NDM-1 IC50
VIM-1 = VIM-1 (Pseudomonas aeruginosa (strain ATCC 15692 / DSM 22644 / CIP 104116 / JCM 14847 / LMG 12228 / 1C / PRS 101 / PAO1), UniProt A0A0F7KYQ8); assay: Enzyme activity: determination of IC50, fluorescence assay with CCF2-FA substrate (VIM-1); assay type: biochemical
[4] = IMP-1 enzyme, CCF2-FA substrate
[5] = (CLB30016, NDM-1), 95% growth inhibition
[6] = Klebsiella pneumoniae IHMA599644 (VIM-1), 95% growth inhibition
[7] = Serratia marcescens CL5741 (IMP-1), 95% growth inhibition
[8] = NDM-1 enzyme, CCF2-FA substrate
[9] = VIM-1 enzyme, CCF2-FA substrate, read-out: VIM-1 IC50
[10] = IMP-1 enzyme, CCF2-FA fluorescence assay
[11] = Escherichia coli expressing NDM-1 (CLB30016), 95% growth inhibition
[12] = Klebsiella pneumoniae expressing VIM-1 (IHMA599644), 95% growth inhibition
[13] = Serratia marcescens expressing IMP-1 (CL5741), 95% growth inhibition
[14] = NDM-1 enzyme, CCF2-FA fluorescence assay
[15] = VIM-1 enzyme, CCF2-FA fluorescence assay, read-out: VIM-1 IC50
[16] = fluorescence assay with CCF2-FA substrate
[17] = CLB30016 (NDM-1), 95% inhibition of bacterial growth
[18] = IHMA599644 (VIM-1), 95% inhibition of bacterial growth
[19] = CL5741 (IMP-1), 95% inhibition of bacterial growth
[20] = VIM-1 IC50, fluorescence assay with CCF2-FA substrate
[21] = fluorescence assay with CCF2-FA substrate, read-out: VIM-1 IC50
[22] = concentration giving 95% inhibition of bacterial growth

Sequence of NDM-1 (C7C422 whole entry, looked up, species assumed): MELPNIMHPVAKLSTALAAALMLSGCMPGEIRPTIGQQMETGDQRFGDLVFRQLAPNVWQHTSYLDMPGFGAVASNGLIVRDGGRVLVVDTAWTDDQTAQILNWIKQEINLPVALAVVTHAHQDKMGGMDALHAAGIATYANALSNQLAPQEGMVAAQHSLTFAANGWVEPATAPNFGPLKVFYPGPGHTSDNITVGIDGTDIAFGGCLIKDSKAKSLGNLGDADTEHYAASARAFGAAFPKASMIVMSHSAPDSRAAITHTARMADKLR
Sequence of IMP-1 (P52699 whole entry, looked up): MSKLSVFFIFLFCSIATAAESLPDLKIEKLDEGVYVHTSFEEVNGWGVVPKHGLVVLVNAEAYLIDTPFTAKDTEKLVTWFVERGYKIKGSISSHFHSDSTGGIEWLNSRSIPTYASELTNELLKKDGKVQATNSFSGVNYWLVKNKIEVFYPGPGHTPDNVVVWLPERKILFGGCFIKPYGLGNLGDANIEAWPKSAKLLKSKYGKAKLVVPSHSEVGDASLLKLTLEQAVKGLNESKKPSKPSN

Row | SMILES | pIC50 (IMP-1; [4]) | Escherichia coli MITC95 [1, 5] [µM] | Klebsiella pneumoniae MITC95 [2, 6] [µM] | Serratia marcescens MITC95 [3, 7] [µM] | pIC50 (NDM-1; [8]) | pIC50 (VIM-1; [9]) | pIC50 (IMP-1; [16]) | pIC50 (NDM-1; [16]) | further results
1 | NS(=O)(=O)c1cccc(-c2ccc(N3CCC(O)C3)nc2)c1-c1nnn[nH]1 (stereo not drawn) [Example 633, 3-[6-(3-hydroxypyrrolidin-1-yl)-3-pyridyl]-2-(1H-tetrazol-5-yl)benzenesulfonamide] | 7.18 | 0.125 | 37.5 | 4.833 | 8.31 | 6.92 | – | – | –
2 | N=C(NC1CNC1)c1ccc(-c2ccc(C(F)(F)F)c(S(N)(=O)=O)c2-c2nn[nH]n2)cc1 [Example 563, N-(azetidin-3-yl)-3′-sulfamoyl-2′-(2H-tetrazol-5-yl)-4′-(trifluoromethyl)biphenyl-4-carboximidamide] | 7.34 | 3.125 | 3.125 | 6.25 | 7.27 | 8.30 | – | – | –
3 | CC1(C)CCN(Cc2ccc(-c3cccc(S(N)(=O)=O)c3-c3nnn[nH]3)cc2)C1 [Example 346, 4′-[(3,3-dimethylpyrrolidin-1-yl)methyl]-2-(1H-tetrazol-5-yl)biphenyl-3-sulfonamide] | – | – | – | – | – | – | – | – | pIC50 (IMP-1; [10]): 6.63; Escherichia coli MITC95 [1, 11]: 1.563 µM; Klebsiella pneumoniae MITC95 [2, 12]: 150 µM; Serratia marcescens MITC95 [3, 13]: 2.344 µM; pIC50 (NDM-1; [14]): 7.93; pIC50 (VIM-1; [15]): 6.39
4 | NS(=O)(=O)c1c(C(F)(F)F)ccc(-c2ccc3c(c2)CNC3)c1-c1nn[nH]n1 [Example 441, 3-(isoindolin-5-yl)-2-(2H-tetrazol-5-yl)-6-(trifluoromethyl)benzenesulfonamide] | – | – | – | – | – | – | – | – | pIC50 (IMP-1; [10]): 7.66; Escherichia coli MITC95 [1, 11]: 1.172 µM; Klebsiella pneumoniae MITC95 [2, 12]: 0.7813 µM; Serratia marcescens MITC95 [3, 13]: 1.563 µM; pIC50 (NDM-1; [14]): 7.95; pIC50 (VIM-1; [15]): 9.08
5 | NS(=O)(=O)c1c(C(F)(F)F)ccc(-c2ccc(C3CCN(C4CC5CCC4N5)CC3)cc2)c1-c1nnn[nH]1 (stereo not drawn) [Example 788, 4′-[1-(7-azabicyclo[2.2.1]hept-2-yl)piperidin-4-yl]-2-(1H-tetrazol-5-yl)-4-(trifluoromethyl)biphenyl-3-sulfonamide] | – | – | – | – | – | – | 9.36 | 8.55 | Escherichia coli MITC95 [1, 17]: 6.25 µM; Klebsiella pneumoniae MITC95 [2, 18]: >200 µM; Serratia marcescens MITC95 [3, 19]: 6.25 µM; pIC50 (VIM-1; [20]): 7.45
6 | NS(=O)(=O)c1c(C(F)(F)F)ccc(N2CCCC(CO)C2)c1-c1nnn[nH]1 (stereo not drawn) [Example 659, 3-[3-(hydroxymethyl)piperidin-1-yl]-2-(1H-tetrazol-5-yl)-6-(trifluoromethyl)benzenesulfonamide] | 7.44 | 15.63 | 25 | 2.344 | 7.73 | 8.19 | – | – | –
7 | NCCC1CCC(N[C@H]2CC[C@H](c3ccc(C(F)(F)F)c(S(N)(=O)=O)c3-c3nnn[nH]3)CC2)CC1 (stereo partly drawn) [Example 693, 3-(4-{[4-(2-aminoethyl)cyclohexyl]a-mino}cyclohexyl)-2-(1H-tetrazol-5-yl)-6-(trifluoromethyl)benzene sulfonamide] | 7.01 | 3.125 | 12.5 | 6.25 | 7.43 | 7.94 | – | – | –
8 | Nc1cccc2c(-c3ccc(C(F)(F)F)c(S(N)(=O)=O)c3-c3nn[nH]n3)cc(C(=O)O)nc12 [Example 526, 8-Amino-4-(3-sulfamoyl-2-(2H-tetrazol-5-yl)-4-(trifluoromethyl)phenyl)quinoline-2-carboxylic acid] | 8.34 | 25 | 50 | 100 | 8.73 | 8.80 | – | – | –
9 | Nc1nc(N)c2ccc(-c3ccc(C(F)(F)F)c(S(N)(=O)=O)c3-c3nnn[nH]3)cc2n1 [Example 750, 3-(2,4-diaminoquinazolin-7-yl)-2-(1H-tetrazol-5-yl)-6-(trifluoromethyl)benzenesulfon-amide] | – | – | – | – | – | – | 7.67 | 8.32 | Escherichia coli MITC95 [1, 17]: 1.563 µM; Klebsiella pneumoniae MITC95 [2, 18]: 3.125 µM; Serratia marcescens MITC95 [3, 19]: 6.25 µM; pIC50 (VIM-1; [20]): 9.36
10 | NCCC1CCC(N2CCC(c3ccc(-c4ccc(C(F)(F)F)c(S(N)(=O)=O)c4-c4nnn[nH]4)cc3)CC2)CC1 (stereo not drawn) [Example 792, 4′-{1-[4-(2-aminoethyl)cyclohexyl]piperidin-4-yl}-2-(1H-tetrazol-5-yl)-4-(trifluoromethyl)biphenyl-3-sulfonamide] | – | – | – | – | – | – | 8.81 | 8.14 | Escherichia coli MITC95 [1, 17]: 3.125 µM; Klebsiella pneumoniae MITC95 [2, 18]: 25 µM; Serratia marcescens MITC95 [3, 19]: 3.125 µM; pIC50 (VIM-1; [21]): 8.36
11 | N=C(N)N1CCC2(CC1)CCN(c1ccc(C(F)(F)F)c(S(N)(=O)=O)c1-c1nnn[nH]1)CC2 [Example 822, 9-[3-sulfamoyl-2-(1H-tetrazol-5-yl)-4-(trifluoromethyl)phenyl]-3,9-diazaspiro[5.5]undecane-3-carboxamidine] | – | – | – | – | – | – | 8.65 | 8.84 | Escherichia coli MITC95 [1, 17]: 0.6406 µM; Klebsiella pneumoniae MITC95 [2, 18]: 1.086 µM; Serratia marcescens MITC95 [3, 19]: 0.0938 µM; pIC50 (VIM-1; [20]): 9.71
12 | NS(=O)(=O)c1cccc(-c2ccc(CNCC3(O)CC3)cc2)c1-c1nnn[nH]1 [Example 380, 4′-({[(1-hydroxycyclopropyl)methyl]amino}methyl)-2-(1H-tetrazol-5-yl)biphenyl-3-sulfonamide] | – | – | – | – | – | – | – | – | pIC50 (IMP-1; [10]): 6.47; Escherichia coli MITC95 [1, 11]: 1.563 µM; Klebsiella pneumoniae MITC95 [2, 12]: 62.5 µM; Serratia marcescens MITC95 [3, 13]: 4.688 µM; pIC50 (NDM-1; [14]): 7.65; pIC50 (VIM-1; VIM-1 IC50, VIM-1 enzyme, CCF2-FA fluorescence assay): 6.58
13 | Nc1nccc(-c2cccc(-c3ccc(C(F)(F)F)c(S(N)(=O)=O)c3-c3nnn[nH]3)c2)n1 [Example 753, 3′-(2-aminopyrimidin-4-yl)-2-(1H-tetrazol-5-yl)-4-(trifluoromethyl)biphenyl-3-sulfonamdie] | – | – | – | – | – | – | 8.69 | 9.00 | Escherichia coli MITC95 [1, 17]: 12.5 µM; Klebsiella pneumoniae MITC95 [2, 18]: 100 µM; Serratia marcescens MITC95 [3, 19]: 12.5 µM; pIC50 (VIM-1; [21]): 9.12
14 | NS(=O)(=O)c1c(C(F)(F)F)ccc(-c2ccc(C3CNCCO3)cc2)c1-c1nnn[nH]1 (stereo not drawn) [Example 713, 4′-morpholin-2-yl-2-(1H-tetrazol-5-yl)-4-(trifluoromethyl)biphenyl-3-sulfonamide] | 8.45 | 3.125 | 3.125 | 6.25 | 8.49 | 9.09 | – | – | –
15 | NS(=O)(=O)c1cccc(-c2ccc(CNCCc3c[nH]cn3)cc2)c1-c1nnn[nH]1 [Example 384, 4′-({[2-(1H-imidazol-4-yl)ethyl]amino}methyl)-2-(1H-tetrazol-5-yl)biphenyl-3-sulfonamide] | – | – | – | – | – | – | – | – | pIC50 (IMP-1; [10]): 6.53; Escherichia coli MITC95 [1, 11]: 1.953 µM; Klebsiella pneumoniae MITC95 [2, 12]: 50 µM; Serratia marcescens MITC95 [3, 13]: 4.688 µM; pIC50 (NDM-1; [14]): 7.87; pIC50 (VIM-1; [15]): 6.65
16 | CC(N[C@H]1CC[C@H](c2ccc(C(F)(F)F)c(S(N)(=O)=O)c2-c2nnn[nH]2)CC1)C1CCNCC1 (stereo partly drawn) [Example 683, 3-{4-[(1-piperidin-4-ylethyl)amino]cyclohexyl}-2-(1H-tetrazol-5-yl)-6-(trifluoromethyl)benzene sulfonamide] | 6.81 | 3.125 | 50 | 12.5 | 7.50 | 7.55 | – | – | –
17 | NCCCc1ccc(-c2ccc(C(F)(F)F)c(S(N)(=O)=O)c2-c2nnn[nH]2)cc1 [Example 735, 4′-(3-aminopropyl)-2-(1H-tetrazol-5-yl)-4-(trifluoromethyl)biphenyl-3-sulfonamide] | 8.77 | 3.125 | 6.25 | 3.125 | 8.52 | 9.41 | – | – | –
18 | Nc1[nH]nc2ccc(-c3cccc(S(N)(=O)=O)c3-c3nnn[nH]3)cc12 [Example 132, 3-(3-amino-2H-indazol-5-yl)-2-(1H-tetrazol-5-yl)benzenesulfonamide] | – | – | – | – | – | – | 6.12 | 8.56 | Escherichia coli expressing NDM-1 (CLB 30016) MITC95 [1, 22]: 1.172 µM; Klebsiella pneumoniae expressing VIM-1 (IHMA 599644) MITC95 [2, 22]: 6.25 µM; Serratia marcescens expressing IMP-1 (CL5741) MITC95 [3, 22]: 12.5 µM; pIC50 (VIM-1; [21]): 7.57
